Results reported in the supplement of paper PMC10290057.
Counter-ions that a name gives are not always drawn.

Tests used:
[1] = tested on: HCT116; assay: AC50 cell viability (CellTiter-Glo); higher = less potent; conditions: 48 h
[2] = tested on: HCT116; assay: efficacy (fitted maximal change in viability relative to DMSO control); higher = less cytotoxic (negative = loss of viability); conditions: 48 h
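Throughout, for AC50 cell viability (CellTiter-Glo): HCT116 colorectal carcinoma cells screened at five concentrations per compound, luminescent viability scaled between DMSO wells and empty wells on each plate, curves fitted per compound.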
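Throughout, for efficacy (fitted maximal change in viability relative to DMSO control): Luminescence-based viability readout, five doses per compound, normalized against on-plate DMSO and empty-well controls, followed by dose-response curve fitting for every drug.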

Structure (SMILES) | AC50 cell viability [1] [µM] | efficacy [2] [%]
COc1cc([S+](C)(=O)[O-])ccc1Nc1nc2ccc(-c3ccc(NC(=O)[C@H](C)c4ccc(F)cc4)cc3)cn2n1 | 0.132 | -30.6
C=C1C(=O)[C@@]23C(CC[C@@H]1[C@H]2O)[C@@]12CO[C@]3(O)[C@@H](O)[C@@H]1C(C)(C)CC[C@@H]2O (stereo not given in full) [Oridonin] | 13.2 | -98.8
CN1CCN(c2ccc(OC(F)(F)F)c(Nc3ncc4c(n3)-c3c(c(C(N)=O)nn3CCO)CC4)c2)CC1 [NMS-P937] | 0.0661 | -63.9
N/C(=N\C(=O)c1nc(Cl)c(N)nc1N)NCc1ccccc1 [Benzamil] | 20.9 | -81
NC(=O)c1ccc2nc(-c3ccc(C4(N)CCC4)cc3)c(-c3ccccc3)n2n1 | 20.9 | -103
Cc1ccc(Sc2ccccc2N2CCNCC2)c(C)c1 [Brintellix] | 11.8 | -92.6
CC1=CC=CC=C1CN2C(=O)C/3=C(/CCN(CC4=CC=CC=C4)C3)N\5CC\N=C25 [TIC-10] | 2.95 | -62.1
O=C(O)c1ccc2cc(-c3ccc(O)c(C45CC6CC(CC(C6)C4)C5)c3)ccc2c1 [AHPN] | 2.95 | -88.2
Cc1cccc(Nc2nc(N[C@@H]3CCCC[C@@H]3N)ncc2C(N)=O)c1 | 7.42 | -94.8
CC(C)[N]1C=C(C)C2=C1C=C(C=C2C(=O)NC\C3=C(C)\C=C(C)/NC3=O)C4=CC=C(N=C4)N5CCN(C)CC5 | 20.9 | -96.9
FC1=CC2=C3[N](CCN(CC3=C1)C(=O)N4CCCCC4)C=C2C/5=C(C(=O)NC5=O)\C6=CN=C7C=CC=C[N]67 | 11.8 | -108
C[C@@]1(c2ncncc2F)NC(=O)c2cc(-c3cn[nH]c3)ccc21 | 14.8 | -101
CN(C)c1ccc(-c2nc3c(N4CCN(CC(=O)Nc5nccs5)CC4)c(Cl)cnc3[nH]2)cc1 | 0.723 | -34.1
COc1cc([C@@H]2c3cc4c(cc3[C@@H](O)C3COC(=O)C32)OCO4)cc(OC)c1O (stereo not given in full) [DMEP] | 0.235 | -52.3
Cc1[nH]c(/C=C2\C(=O)Nc3ccc(F)cc32)c(C)c1C(=O)NC[C@H](O)CN1CCOCC1 | 2.63 | -73
O=c1[nH]c2ccccc2n1CCCN1CCC(n2c(=O)[nH]c3cc(Cl)ccc32)CC1 [Domperidone] | 18.6 | -68
CCN(CC)CCOC1=CC=C(NC2=NC=C3\C=C(/C(=O)N(C)C3=N2)C4=C(Cl)C=CC=C4Cl)C=C1 | 1.18 | -86.9
CC(C)N1N/C(=C2\C=c3cc(O)ccc3=N2)c2c(N)ncnc21 [Torkinib] | 5.25 | -125
COc1cc(O)c2c(c1)C1OC1C[C@H](O)[C@H](O)C(=O)/C=C\C[C@H](C)OC2=O (stereo not given in full) [Hypothemycin] | 3.72 | -72
NC(CO)(CO)CCc1ccc(Sc2cccc(OCc3ccccc3)c2)cc1Cl [KRP-203] | 7.42 | -92.6

Structure (SMILES) | AC50 cell viability [1] [µM] | efficacy [2] [%]
O=C(/C=C/c1cccnc1)NCCCCC1CCN(C(=O)c2ccccc2)CC1 [Daporinad] | 0.00525 | -94.1
COc1cc2nc(-c3ccc(N4CCN(C)CC4)cc3)nc(NCCN3CCOCC3)c2cc1OC | 2.95 | -87.2
CC/1=C/C[C@]23O[C@@]2(C)CC[C@@H]4[C@H](OC(=O)C4=C)[C@@H]13 [Arglabin] | 14.8 | -79
CNCCCOc1cc(F)c(-c2c(Cl)nc3ncnn3c2N[C@@H](C)C(F)(F)F)c(F)c1 [Cevipabulin] | 0.0525 | -60.6
Cc1c(O)cccc1C(=O)NC(CSc1ccccc1)C(O)CN1CC2CCCCC2CC1C(=O)NC(C)(C)C (stereo not given) [Nelfinavir] | 20.9 | -101
Cc1cc(Nc2nc(N[C@@H](C)c3ccc(F)cc3)c(C#N)cc2F)n[nH]1 [AZ-960] | 5.9 | -100
c1cc(Nc2cc(C3CC3)n[nH]2)nc(Nc2ccc3nc[nH]c3c2)n1 [APY29] | 0.235 | -66.4
CC\1=C/C=C\C=[N]1[Pt](N)(Cl)Cl [Picoplatin] | 20.9 | -50.8
CCOc1cc2ncc(C#N)c(Nc3ccc(F)c(Cl)c3)c2cc1NC(=O)/C=C/CN(C)C [Pelitinib] | 5.9 | -97.7
NC\1=N\C(=O)N(\C=N1)[C@H]2C[C@H](O)[C@@H](CO)O2 [Decitabine] | 9.34 | -42.1
COc1ccc(COc2ccc(Cc3cnc(N)nc3N)cc2OC)cc1 [GW-2580] | 14.8 | -96.7
Cc1c(NC(=O)OCC2COCCN2)cn2ncnc(Nc3ccc4c(cnn4Cc4cccc(F)c4)c3)c12 (stereo not given) | 26.3 | -91.3
CN(C)C(=O)C(CCN1CCC(O)(c2ccc(Cl)cc2)CC1)(c1ccccc1)c1ccccc1 [Loperamide hydrochloride] | 18.6 | -98.7
O=C(c1ccc(Nc2nccc(-c3cc4ccccc4s3)n2)cc1)N1CCC(N2CCCC2)CC1 [IKK-16] | 6.61 | -106
COc1cc(Nc2ncc(F)c(Nc3ccc4c(n3)NC(=O)C(C)(C)O4)n2)cc(OC)c1OC [R-406] | 3.72 | -30.6
COC1=CC(=C2C(=O)N(COC/3=C/C(=O)N4\C=C/C=C(OCCN5CCCCC5)\C4=N3)[S+]([O-])(=O)C2=C1)C(C)C | 20.9 | -84.2
c1cc(OCCN2CCCCC2)cc(-c2n[nH]c3ccc(-c4nc[nH]n4)cc23)c1 [CC-401] | 14.8 | -70.1
CCC1=C2CN3C(=O)\C4=C(/C=C3/C2=NC5=CC=C(O)C=C15)[C@@](O)(CC)C(=O)OC4 [SN-38] | 0.0661 | -79.2
CNCc1ccc(C)c(NC(=O)c2ccc(Nc3nc(-c4ccccc4)c4ccccc4n3)cc2)c1 | 18.6 | -94.8
N=C(N)c1ccc(OCCCCCOc2ccc(C(=N)N)cc2)cc1 [Pentamidine isethionate] | 20.9 | -54.5

Structure (SMILES) | AC50 cell viability [1] [µM] | efficacy [2] [%]
CCC1=C[C@@H]2CN(C1)Cc1c([nH]c3ccccc13)[C@@](C(=O)OC)(c1cc3c(cc1OC)N(C)[C@H]1[C@@](O)(C(=O)OC)[C@H](OC(C)=O)[C@]4(CC)C=CCN5CC[C@]31[C@@H]54)C2 [Vinorelbine (ditartrate)] | 0.129 | -60.3
Clc1ccc(COC(Cn2ccnc2)c2ccc(Cl)cc2Cl)c(Cl)c1 (stereo not given) [Miconazole nitrate] | 20.9 | -97.9
CC[C@@H]1[C@H](F)C(=O)N[C@@H]1COc1nccc2cc(C(N)=O)c(OC)cc12 | 13.2 | -66.9
CCCCCNC(=O)N1CCC(CN(Cc2ccc(Cl)cc2)Cc2ccc([N+](=O)[O-])s2)C1 (stereo not given) [SR-9011] | 20.9 | -71
O=C(O)c1ccc(O)c2ncc(N3CCOCC3)cc12 | 23.5 | -43
Cc1ccc([S+](=O)([O-])N[C@@H](Cc2ccccc2)C(=O)CCl)cc1 [TPCK] | 18.6 | -77.8
C[C@]12CC[C@H]3[C@@H](CC[C@@]45O[C@@H]4\C(=C(/C[C@]35C)C#N)O)[C@@H]1CC[C@@H]2O [Trilostane] | 13.2 | -31.9
NC\1=N\C(=O)N(\C=C1)[C@@H]2O[C@H](CO)[C@@H](O)[C@@H]2O [Cytarabine] | 0.0742 | -61.7
CCC(C1CCC(C)C(O1)C(C)C(O)C(C)C(=O)C(CC)C2OC\3(O[C@]4(CC[C@@](C)(O4)C5CC[C@@](O)(CC)C(C)O5)C(O)\C=C3)C(C)CC2C)C([O-])=O (stereo not given in full) [Salinomycin] | 13.2 | -98.3
Cc1ccc(C(=O)Nc2cccc(C(F)(F)F)c2)cc1Nc1nc(-c2cccnc2)nc2c1cnn2C [NVP-BHG712] | 8.33 | -103
COc1cc2ncnc(Nc3cccc(Br)c3)c2cc1OC | 20.9 | -53
CCC[S+]([O-])c1ccc2[nH]c(NC(=O)OC)nc2c1 (stereo not given) [Albendazole oxide] | 13.2 | -45.3
CC1=C2N=C([NH]C2=CC(=C1)N3CCOCC3)\C4=C(NC[C@@H](O)C5=CC=CC(=C5)Cl)\C=C/NC4=O | 6.61 | -93.9
O=C1S/C(=C\c2ccc(OCc3cccc(B(O)O)c3)cc2)C(=O)N1Cc1ccc(F)cc1 [HA-130] | 18.6 | -41.3
CCC1=C2C=C(OC(=O)N3CCC(CC3)N4CCCCC4)C=CC2=NC\5=C1CN6C(=O)\C7=C(/C=C56)[C@@](O)(CC)C(=O)OC7 [Irinotecan] | 1.18 | -80
CCc1cnn2c(NCc3ccc[n+]([O-])c3)cc(N3CCCC[C@H]3CCO)nc12 | 0.0148 | -67.1
C[C@@H]1C[C@H]2[C@@H]3\C=C(C)/C4=C/C5=C(C[C@]4(C)[C@H]3[C@@H](O)C[C@]2(C)[C@@]1(O)C(=O)CO)C=N[N]5C6=CC=CC=C6 [Deacetyl cortivazol] | 26.3 | -121
CCCCCCCOc1ccc(CCC(N)(CO)CO)cc1C(F)(F)F [Amiselimod hydrochloride] | 10.5 | -96.7
CC(C)(O)C[S+](=O)([O-])Nc1ccc2c(c1)CCN(C(=O)COc1cccnc1)C2 [NAMPT-IN-1] | 0.0468 | -92.6
CC1CCN(c2cc(N3CCN(C)CC3)ccc2NC(=O)c2cc(C#N)c[nH]2)CC1 [c-FMS Inhibitor] | 7.42 | -34
